Data as given in article PMC3608651, “A Broad Profile of Co-Dominant Epitopes Shapes the Peripheral Mycobacterium tuberculosis Specific CD8+ T-Cell Immune Response in South African Patients with Active Tuberculosis” (PLoS ONE, 2013).
Where two headings read alike, the source gives them in different places.

Legend:
Type in all cases: binding
HLA-A*68:01 = HLA-A*68:01 (Homo sapiens, UniProt P04439, A269V/D185E/E176V/E277Q/E87N/F33Y/G231S/I121M/I166T/I218V/L180W/L300P/L318F/N151K/P208A/P217A/Q86R/R169H/T345S); conditions: duplicated experiments, positive binder >40%
HLA-A*30:02 [1] = target: T1, HLA-A*30:02 (Homo sapiens, UniProt P04439, D101N/D140H/D185E/E176R/F33S/G80R/H175R/K168Q/Q94H/R138E/R41S/V100E); conditions: duplicated experiments, positive binder >40%
HLA-A*02:01 = HLA-A*02:01 (Homo sapiens, UniProt P04439, D140Y/D185E/D98H/E176V/E277Q/G131W/G231S/I119V/I121R/I166T/I218V/L300P/L318F/N151K/N90K/P208A/P217A/Q86G/Q94H/R138H/R169H/T345S); conditions: plate-bound monomer 0.5 µg/ml, duplicated experiments, positive binder >40%
HLA-A*24:02 = HLA-A*24:02 (Homo sapiens, UniProt P04439, D101N/D140Y/D185E/E176V/E190D/F33S/G103R/G107R/I119L/I121M/I306V/K335N/L105A/L180Q/L300P/N151K/N90K/Q86E/Q94H/R106L/R138H/R89G/T104I/T345S/V100E/W191G/Y123F)
HLA-A*30:02 [2] = target: T1, HLA-A*30:02; conditions: time points 0-8 h
HLA-B*07:02 = HLA-B*07:02 (Homo sapiens, UniProt P01889); conditions: percent relative the binding of positive control peptide […]; duplicated experiments; positive binder >40%
HLA-A*30:02 [3] = target: T1, HLA-A*30:02
HLA-B*58:01 = HLA-B*58:01 (Homo sapiens, UniProt P01889, A329T/C349S/D201E/D98Y/E176V/E187L/E204Q/E69T/G107R/I218V/I90N/K202T/L105A/L119I/N104I/N87E/Q89R/Q94S/R106L/R155S/R180L/R86G/S101N/S121R/S35A/S48A/T118I/V127L/V306I/V36M/Y140S/Y91M); conditions: duplicated experiments, positive binder >40%
HLA-A*30:01 = HLA-A*30:01 (Homo sapiens, UniProt P04439, D140H/D185E/E176W/F33S/G80R/H175R/K168Q/R138E/R41S); conditions: duplicated experiments, positive binder >40%
HLA-C*07:01 = HLA-C*07:01 (Homo sapiens, UniProt P10321, K90N/S123Y); conditions: duplicated experiments, positive binder >40%
[4] = percent relative the binding of positive control peptide […]
[5] = percent relative the binding of positive control peptide […], duplicated experiments, positive binder >40%
[6] = percent relative the binding of positive control peptide KTGGPIYKR
[7] = percent relative the binding of positive control peptide KIQNFRVYY
[8] = percent relative the binding of positive control peptide FLPSDFFPSV
[9] = percent relative the binding of positive control peptide RYLKDQQLL, duplicated experiments, positive binder >40%
[10] = peptide titrated 10−4 to 10−9 M
[11] = percent relative the binding of positive control peptide IAMESIVIW
[12] = percent relative the binding of positive control peptide KTKDIVNGL
[13] = percent relative the binding of positive control peptide KYFDEHYEY

Substance	Bind A*68:01 (HLA-A*68:01; [4])	Bind A*30:02 (HLA-A*30:02 [1]; [4])	Bind A*02:01 (HLA-A*02:01; [4])	Bind A*24:02 (HLA-A*24:02; [5])	O-rate A*30:02 (t1/2) (HLA-A*30:02 [2])	Bind B*07:02 (HLA-B*07:02)	Aff A*30:02 (ED50) (HLA-A*30:02 [3])	Bind B*58:01 (HLA-B*58:01; [4])	Bind A*30:01 (HLA-A*30:01; [4])	Bind C*07:01 (HLA-C*07:01; [4])	Bind A*68:01 (HLA-A*68:01; [6])	Bind A*30:02 (HLA-A*30:02 [1]; [7])	Bind A*02:01 (HLA-A*02:01; [8])	Bind A*24:02 (HLA-A*24:02; [9])	Aff A*30:02 (ED50) (HLA-A*30:02 [3]; [10])	Bind B*58:01 (HLA-B*58:01; [11])	Bind A*30:01 (HLA-A*30:01; [12])	Bind C*07:01 (HLA-C*07:01; [13])	Bind A*24:02 (HLA-A*24:02)
KAADMW GPS	17%	103%	33%	4%	48 min	18%	7E -09 M	21%	1%	34%									
QQKWDATAT [Rv3875_55–63]					102 min	9%					9%	60%	0%	0%	9e-08 M	8%	29%	4%	
MTEQQWNFA [Rv3875_1–9]					84 min	2%					25%	52%	13%	0%	2e-08 M	2%	0%	0%	
AWGGSGSEA [Rv3875_42–50]					102 min	6%					11%	90%	4%	4%	8e-07 M	6%	16%	29%	
AYHPQQFIY	5%	111%	13%	60%	114 min	0%	1E -07 M	35%	6%	43%									
NLKFQDAYN	9%	123%	8%	0%	24 min	0%	1e-05 M	0%	0%	7%									
KFQDAYNAA	0%	113%	19%	0%	42 min	0%	8e-06 M	0%	0%	0%									
TATELNNAL [Rv3875_61–69]					156 min	12%					13%	106%	11%	15%	9e-09 M	0%	4%	5%	
IYAGSLSAL	4%	116%	44%	107%	30 min	83%	4E -06 M	16%	0%	0%									
GVQQKWDAT [Rv3875_53–61]					78 min	10%					0%	78%	0%	0%	3e-08 M	6%	9%	9%	
LQNLARTIS [Rv3875_69–77]					126 min	10%					8%	77%	27%	26%	1e-08 M	20%	11%	3%	
LVRAYHSMS [Rv0288_65–73m1]		30%			54 min		1e-08 M		7%										
TMLGHAGDM [Rv0288_10–18m1]		99%	10%	4%	36 min		5e-06 M												
QQWNFAGIE [Rv3875_4–12]						1%					15%	39%	45%	0%		0%	0%	11%	
ACGKAGCQT	13%	0%	44%	25%		9%		0%	19%	0%									
DHAGDMAGY [Rv0288_13–21m1]		141%			18 min		1e-08 M												
PSQGMGPSL	0%	16%	39%	56%		8%		0%	21%	29%									
FYSDW YSPA	0%	0%	61%	10%		0%		0%	13%	0%									
AYHSMSSTH [Rv0288_68–76m1]		70%			30 min		2e-07 M												
SSNLKFQDA	14%	64%	32%	12%		0%		9%	0%	10%									
GLSMAGSSA	0%	0%	75%	0%		31%		0%	0%	0%									
ILAAYHPQQ	0%	45%	57%	0%		1%		30%	1%	1%									
VMPVGGQSS	0%	12%	60%	0%		0%		0%	0%	0%									
DPSQGMGPS	0%	29%	30%	58%		0%		12%	21%	19%									
AVKPTGSAA	0%	7%	10%			82%		0%	0%	0%									0
QLNAMKGDL	0%	0%	71%	60%		49%		0%	10%	17%									
